Reference: patent US20110104155A1, “DRUG DELIVERY TO THE ANTERIOR AND POSTERIOR SEGMENTS OF THE EYE USING EYE DROPS” (Raouf Rekik, priority 2008, published 2011)

Experiments:
[1] = in vivo
Method: (§1) The experimental technique was based on ocular fundus fluorescence: Five patients were used in this study. […] Then every hour, the conjunctivae of the two eyes were exposed every hour to a 10% fluorescein solution. 8 hours later the fundus fluorescence in the two eyes was measured and analysed.

[2] = tested on: macular oedema secondary to CRVO; conditions: injected into the eye (intravitreal); cited from earlier work
[3] = ocular fundus fluorescence after topical drug carrier plus fluorescein eye drops; conditions: exposure of the conjunctival fornices to a 10% fluorescein solution; 7 hours later
Method: as §1

Row | Compound | ocular fundus fluorescence compared with the eye receiving only fluorescein [1] | effect on macular oedema secondary to CRVO [2] | anterior segment fluorescence compared with the eye receiving only fluorescein [1] | also measured
1 | CNC[C@H](O)c1cccc(O)c1 [neosynephrine] | stronger | – | – | –
2 | C[C@]12C=CC(=O)C=C1CC[C@H]1[C@@H]3C[C@@H](O)[C@](O)(C(=O)CO)[C@@]3(C)C[C@H](O)[C@@]12F [triancinolone (Aristocert®), triancinolone] | – | efficacy | – | –
3 | Brc1c(NC2=NCCN2)ccc2nccnc12 [brimonidine] | stronger | – | stronger | –
4 | O=C1OC2(c3ccc(O)cc3Oc3cc(O)ccc32)c2ccccc21 [fluorescein] | – | – | – | maximum vitreous concentration [3]: 1.5e-12 g/mL
5 | CC(C)(C)NC[C@H](O)COc1nsnc1N1CCOCC1 [timolol] | stronger | – | the same | –
6 | bevacizumab [Avastin®] | – | improved | – | –
